Source: patent US20060189576A1, “Substituted vitamin d analogues and their therapeutic uses” (priority 2003, published 2006)
Like-named read-outs stand apart in the source and are kept apart here. Marks after values point to notes of the source that are not given here.

Key:
MCF-7 cells [1] = settings: known superagonists; data published in J Bone Mineral Res 15 (2): 237-252 (2000); cited from earlier work
[2] = known superagonists; data published in J Bone Mineral Res 15 (2): 237-252 (2000); cited from earlier work
hDBP = target: T1, hDBP (Homo sapiens, UniProt P02774); assay: Affinity for human DBP: competition with [3H]1α,25(OH)2D3; assay type: binding; settings: percentage activity (at 50% of the dose response) in comparison with 1α,25(OH)2D3 (=100%)
T1 sequence (P02774 17-474): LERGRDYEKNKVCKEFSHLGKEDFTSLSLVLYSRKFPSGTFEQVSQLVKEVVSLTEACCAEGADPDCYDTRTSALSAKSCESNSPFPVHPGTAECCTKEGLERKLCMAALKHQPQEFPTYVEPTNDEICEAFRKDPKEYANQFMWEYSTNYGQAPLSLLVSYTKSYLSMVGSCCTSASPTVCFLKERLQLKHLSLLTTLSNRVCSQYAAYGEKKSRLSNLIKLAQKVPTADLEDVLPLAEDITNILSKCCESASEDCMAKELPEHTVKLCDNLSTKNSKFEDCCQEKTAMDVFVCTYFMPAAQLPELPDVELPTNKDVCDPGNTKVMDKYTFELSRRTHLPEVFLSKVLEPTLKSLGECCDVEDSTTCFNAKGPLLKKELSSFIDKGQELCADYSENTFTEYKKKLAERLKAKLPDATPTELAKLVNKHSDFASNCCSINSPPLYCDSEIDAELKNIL
Protocol: Phase separation was then obtained by the addition of 0.5 ml of cold dextran-coated charcoal.

HL-60 cells = assay: HL-60 cell differentiation (NBT reduction assay); assay type: cell-based; settings: for IN VITRO STUDIES HL 60: potency to differentiate HL 60 cells, percentage activity vs 1α,25(OH)2D3 (=100%)
Protocol: To evaluate the effect on cell differentiation HL-60 cells were seeded at 4×10^4 cells/ml in 25 cm^2 Falcon tissue chambers using RPMI 1640 medium supplemented with 20% FCS and gentamycin (50 μg/ml) in a final volume of 5 ml. Cultures were maintained at 37° C. in a humidified atmosphere of 5% CO2 in air. […] After 4 days of culture, the dishes were shaken to lose adherent cells. Cells were washed twice in RPMI, counted and assayed for differentiation markers (NBT reduction assay). Superoxide production was measured as NBT reducing activity as described previously (Ostrem V. K et al. Proc Natl Acad Sci USA 84: 2610-2614, 1987). HL-60 cells at 1×10^6/ml were mixed with an equal volume of freshly prepared solution of phorbol 12-myristate 13-acetate (200 ng/ml) and […] and incubated for 30 min at 37° C. The percentage of cells containing black formazan deposits was determined using a hemacytometer.

MCF-7 cells [3] = assay: MCF-7 cell proliferation ([3H]thymidine incorporation); assay type: cell-based; settings: for antiproliferative activity, times that of 1α,25(OH)2D3 / antiproliferative effect (in words): MCF-7 cells; for IN VITRO STUDIES MCF-7: antiproliferative action, percentage activity vs 1α,25(OH)2D3 (=100%)
Protocol: To evaluate the effect of on cell proliferation, malignant MCF-7 cells were cultured in DMEM/nut. mix. […] Cultures were maintained at 37° C. in a humidified atmosphere of 5% CO2 in air. MCF-7 cells were seeded at 5×10^3 cells/well in the above described medium in 96-well microtiter plates in a final volume of 0.2 ml per well. Triplicate cultures were performed. […] Then, 1 μCi [^3H]thymidine was added to each well and cells were harvested after 4 h incubation with a Packard harvester and measured by the Packard Topcount System (Packard, Meriden, USA).

[4] = Primary prevention of osteoporosis in ovariectomized mice; assay type: in vivo, C3H female mice
Protocol: 12 week old C3H female mice are subjected to bilateral ovariectomy or sham surgery. The animals are treated with the analog or vehicle by oral gavage or intraperitoneally. Dosing is started 3 days after sugery and continued for 8-9 weeks.
(§1) Before the first treatment in vivo measurements are performed to determine bone mineral density (BMD), bone mineral content (BMC) of total body and spine by dual-energy X-ray absorptiometry (DXA). Urine and serum is collected to measure calcium levels together with collagen cross-links in urine and osteocalcin in serum. The animals are weighed regularly during the experimental period. After 4 weeks treatment urine and serum is again collected and biochemical parameters are determined. At the end of the experiment (8-9 weeks) urine is collected and DXA measurement is performed in vivo to determine BMD and BMC. After killing the animals tibiae and femora are dissected The following biochemical parameters are investigated: serum calcium, serum osteocalcin, urine calcium, urine collagen cross-links, femur calcium.
(§2) Tibiae are used for histomorphometric analysis and femurs for measurement of cortical and trabecular volumetric density and geometry by peripheral quantitative computed tomography (pQCT) ex vivo.

[5] = Secondary prevention or treatment of osteoporosis in ovariectomized mice; assay type: in vivo, C3H female mice
Protocol: 12 week old C3H female mice are subjected to bilateral ovariectomy or sham surgery. The animals are treated with the analog or vehicle by oral gavage or intraperitoneally. Dosing is started 4 weeks after sugery and continued for 4-10 weeks.
as §1, with “dual-energy,” for “dual-energy”, “determined and” for “determined. At the end of the experiment (8-9 weeks)”
as §2

vitamin D receptor = target: T2, vitamin D receptor (Sus scrofa, UniProt A3RGC1); settings: percentage activity (at 50% of the dose response) in comparison with 1α,25(OH)2D3 (=100%)
T2 sequence (A3RGC1 1-427): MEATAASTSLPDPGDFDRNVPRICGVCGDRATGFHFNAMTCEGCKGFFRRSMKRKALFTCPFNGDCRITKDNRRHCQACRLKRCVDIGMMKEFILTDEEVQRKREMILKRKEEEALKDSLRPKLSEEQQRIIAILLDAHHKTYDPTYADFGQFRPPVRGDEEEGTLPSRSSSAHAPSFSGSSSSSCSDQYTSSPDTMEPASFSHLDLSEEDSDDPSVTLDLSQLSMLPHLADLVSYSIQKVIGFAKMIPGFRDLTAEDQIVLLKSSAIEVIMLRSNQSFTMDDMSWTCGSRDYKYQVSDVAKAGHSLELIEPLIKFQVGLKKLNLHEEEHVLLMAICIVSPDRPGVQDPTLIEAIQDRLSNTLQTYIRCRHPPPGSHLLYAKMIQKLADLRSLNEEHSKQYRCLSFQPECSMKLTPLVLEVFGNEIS
Protocol: The incubation was performed at 4° C. for 20 h and phase separation was obtained by addition of dextran-coated charcoal.

[6] = for Femur calcium: NMRI mice; for IN VIVO STUDIES Osteocalcin serum: mice, daily intraperitoneal injection 7 consecutive days, percentage activity vs 1α,25(OH)2D3 (=100%)
Protocol: Eight weeks old, male NMRI mice were obtained from the Proefdierencentrum of Leuven (Belgium) and fed a vitamin D-replete diet (0.2% calcium, 1% phosphate, 2000 U vitamin D/kg; Hope Farms, Woerden, The Netherlands). […] The control group was injected with vehicle (arachis oil). The average weight of each group of 6 mice was determined at the beginning and at the end of the experiment. The following parameters were evaluated: serum calcium, serum osteocalcin, femur calcium and urinary calcium. Serum and urinary calcium were measured by a microcolorimetric assay (Sigma, St. Louis, Mo.). Femurs were removed and femur calcium content was measured in HCl-dissolved bone ash (obtained by heating for 24 h in an oven at 100° C.), using the same technique as for serum and urinary calcium.

[7] = background, well established; cited from earlier work

Compound | Antiproliferative activity on MCF-7 cells (MCF-7 cells [1]) | Serum calcium in mice [2] [%] | AFFINITY STUDIES DBP (hDBP) [%] | prodifferentiating effect (in words) (HL-60 cells; HL 60 cells) | IN VITRO STUDIES HL 60 (HL-60 cells) [%] | antiproliferative activity, times that of 1α,25(OH)2D3 (MCF-7 cells [3]) [times] | antiproliferative effect (in words) (MCF-7 cells [3]) | IN VITRO STUDIES MCF-7 (MCF-7 cells [3]) [%] | AFFINITY STUDIES VDR (vitamin D receptor) [%] | IN VIVO STUDIES Osteocalcin serum [6] [%] | IN VIVO STUDIES Calcium serum ([6]; mouse, in vivo, ip) [%] | further results
C=C1/C(=C\C=C2/CCC[C@]3(C)[C@@H]([C@H](C)/C=C/[C@@H](O)C4CC4)CC[C@@H]23)C[C@@H](O)C[C@@H]1O [MC 903] | 100-200% | 1 | – | – | – | – | – | – | – | – | – | –
14-epi-2α-methyl-19-nor-23-yn-1α,25-dihydroxyvitamin D3 [Compound 108] | – | – | 0.3 | very potent | 4000 | 120 | very potent | 12000 | 80 | 4 | 2 | prodifferentiating activity, times that of 1α,25(OH)2D3 (HL-60 cells; HL 60 cells): 40 times; Antiproliferative activity on MCF-7 cells (MCF-7 cells [3]; percentage activity (at 50% of the dose response) vs 1α,25(OH)2D3 (=100%)): 12000%; serum calcium or urinary calcium levels ([4]; after at least four weeks, more particularly 8 weeks of treatment): not significantly increased; BMD, BMC and femur calcium ([4]; ovariectomized mice, dosing from 3 days after surgery for 8-9 weeks): increase; serum calcium or urinary calcium levels ([5]; after four weeks, more particularly 8 weeks of treatment): not significantly increased; BMD, BMC and femur calcium concentration ([5]; ovariectomized mice, dosing from 4 weeks after surgery, compared to levels prior to treatment): increase; increase of calcium levels in bone compared to 0.1 μg/kg/d 1,25(OH)2D3 ([6]; 1 μg/kg/d, 7 consecutive days): 18%; increase of calcium levels in bone compared to 0.2 μg/kg/d 1,25(OH)2D3 ([6]; 1 μg/kg/d, 7 consecutive days): 14%; increase of calcium levels in bone compared to 0.4 μg/kg/d 1,25(OH)2D3 ([6]; 1 μg/kg/d, 7 consecutive days): 20%; increase of calcium levels in bone compared to vehicle treated mice ([6]; 1 μg/kg/d, 7 consecutive days): 10%; Femur calcium ([6]; 0.4 μg/kg/d intraperitoneally, 7 consecutive days): 9.57 ± 0.26 mg; Femur calcium ([6]; 1 μg/kg/d intraperitoneally, 7 consecutive days): 10.52 ± 0.43*^,$ mg; IN VIVO STUDIES Calcium urine ([6]; mouse, in vivo, ip): 4%; Serum calcium in mice ([6]; mouse, in vivo, ip): 2%
C=C1/C(=C\C=C2/CCC[C@]3(C)[C@@H]([C@H](C)OCCC(C)(C)O)CC[C@@H]23)C[C@@H](O)C[C@@H]1O [OCT] | 100-150% | 0.3 | – | – | – | – | – | – | – | – | – | –
C[C@H](CCCC(C)(C)O)[C@H]1CC[C@H]2/C(=C/C=C3C[C@@H](O)C[C@H](O)C3)CCC[C@]12C [19-nor-1α,25-dihydroxyvitamin D3] | – | – | – | – | – | – | – | – | – | – | – | calcemic effect, % of that of 1α,25(OH)2D3 [7]: 10%
CC(CC#CC(C)(C)O)C1CCC2C(=CC=C3CC(O)C(C)C(O)C3)CCCC21C (stereo not drawn) [Compound 104, 2α-methyl-19-nor-23-yn-1α,25-dihydroxyvitamin D3] | – | – | 4 | very potent | 1500 | 100 | very potent | 10500 | 70 | 4 | 10 | increase of capacity to inhibit the proliferation of MCF-7 cells on introduction of the 23-yne side chain (MCF-7 cells [3]; compared with analogue 102): 26 times
